This passage reports IC50 and inhibition results from patent US7977387B2, “Aminobenzophenone compounds” (Leo Pharma A/S, priority 2003, dated 2011).

In general, inhibition refers to the change of the read-out against control, counted positive when it falls.

The subject of one assay is IL-1β. The assay is described as follows: Inhibition of IL-1β secretion in LPS stimulated peripheral blood mononuclear cells. Type of assay: cell-based. As to conditions: PBMC; LPS stimulated human peripheral blood mononuclear cells, 18 hours, ELISA; read-out: The median inhibition concentration (IC50, nM) of IL-1β. On the procedure: (§1) To study the effect of compounds of the present invention in vitro, the inhibition of IL-1β and TNF-α secretion was determined using the following procedure:
(§2) Cytokine production was measured in the media from lipopolysaccharide (LPS) stimulated peripheral blood mononuclear cells. The mononuclear cells were isolated from human peripheral blood by Lymphoprep® (Nycomed, Norway) fractionation and suspended in RPMI 1640 (growth medium) with foetal calf serum (FCS, 2%), at a concentration of 5×10^5 cells/ml. The cells were incubated in 24-well tissue culture plates in 1 ml aliquots. Test compounds were dissolved in dimethylsulfoxide (DMSO, 10 mM) and were diluted with the medium. Compounds were added to the cells for 30 minutes, then LPS ([…] final concentration) was added. The plates were incubated for 18 hours, and the concentration of IL-β and TNF-α in the medium was determined by enzyme-linked immunosorbent assays. The median inhibitory concentrations (IC50) of the compounds were calculated.
In general terms: ELISA stands for enzyme-linked immunosorbent assay.

For a further assay, the system named is TNF-α. The assay is described as follows: Inhibition of TNF-α secretion in LPS stimulated peripheral blood mononuclear cells. As to conditions: PBMC; LPS stimulated human peripheral blood mononuclear cells, 18 hours, ELISA; read-out: The median inhibition concentration (IC50, nM) of TNF-α. Type of assay: cell-based. As for the experimental part: as §1, §2
Assay [1] deals with LPS induced TNF-α response. The assay is described as follows: In vivo screening model of LPS induced TNF-α response in mice. As to conditions: Mus musculus, mice (C3H/HeN), dosed 1 hour prior to LPS, plasma TNF-α 80-90 minutes after LPS, vs LPS treated control group, read-out: In vivo inhibition of LPS induced TNF-α production (in %). On the procedure: In Vivo Screening Model of LPS Induced TNF-α Response in Mice
To study the effect of compounds of the present invention in vivo, an in vivo screening model of LPS induced TNF-α response in mice was set up as follows: Groups of 6 mice (C3H/HeN, female, about 8 weeks (20 g), Bomholtgaard) were dosed with test compounds in suspension vehicle 1 hour prior to LPS administration (LPS from E. coli 055:B5, L-4005, Sigma). At time 0, the mice were dosed ip with 1.0 mg LPS/kg. After anesthetization with Hypnorm/Dormicum, the mice were bled from the periorbital venous plexus 80-90 minutes after LPS administration. The blood samples were sampled in EDTA stabilised tubes and centrifuged at 4000 rpm for 10 minutes at 4° C. The plasma level of TNF-α was analysed by ELISA. Compound 156 of WO 98/32730 was used as reference compound. The plasma level of TNF-α was determined using a sandwich ELISA. Microtiter plates were coated with a monoclonal antibody against mouse TNF-α, washed and blocked with a casein buffer. Samples of mouse TNF-α recombinant standards were added to the wells of the microtiter plates and incubated. All standards were tested in triplicate, all plasma samples in single. After sample and standard incubation, the plates were washed and incubated with biotinylated polyclonal secondary antibody against mouse TNF-α and washed. Enzyme conjugate was added to all wells and incubated. Substrate was added and the enzyme/substrate reaction stopped after 15 minutes at room temperature with 1M H2SO4. The colour development (OD) was measured at 450 nm on an ELISA reader and the background OD at 620 nm was subtracted. […] The results of the tested compounds are indicated as a percentage inhibition compared to an LPS treated control group. Compounds were tested at 10 mg/kg. The Mann-Whitney test was used to compare drug treated groups to the LPS treated control group (p<0.05).

For the molecule `Cc1cc(F)ccc1Nc1ccc(C(=O)c2cc(C(=O)NCC3CCCO3)ccc2C)c(Cl)c1` (stereo not shown) [Compound 104, 3-[2-Chloro-4-(4-fluoro-2-methylphenylamino)benzoyl]-4-methyl-N-(tetrahydrofuran-2-ylmethyl)benzamide], the IC50 in the assay with IL-1β is 2 nM; with TNF-α, 1.3 nM. Further, the inhibition at 10 mg/kg in assay [1] is 95%.
Taken in the same sequence, the figures for `Cc1ccc(C(=O)NCCO)cc1C(=O)c1ccc(Nc2ccc(Br)cc2N)cc1Cl` [Compound 113, 3-[4-(2-Amino-4-bromophenylamino)-2-chlorobenzoyl]-N-(2-hydroxyethyl)-4-methylbenzamide] were 4 nM, 1.8 nM and 83%.
For the molecule `Cc1cc(Br)ccc1Nc1ccc(C(=O)c2cc(C(=O)NCCO)ccc2C)c(Cl)c1` [Compound 114, 3-[4-(4-Bromo-2-methylphenylamino)-2-chlorobenzoyl]-N-(2-hydroxyethyl)-4-methylbenzamide], the IC50 came to 2.5 nM in the assay with IL-1β and 0.4 nM in the assay with TNF-α. Besides, the inhibition at 10 mg/kg in assay [1] is 72%.
Take `Cc1ccc(NC(=O)c2ccccc2O)cc1C(=O)c1ccc(Nc2ccc(F)cc2F)cc1Cl` [Compound 247, N-{3-[2-Chloro-4-(2,4-difluoro-phenylamino)-benzoyl]-4-methyl-phenyl}-2-hydroxy-benzamide]: the IC50 is 5.6 nM in the assay on IL-1β and 1.4 nM in the assay with TNF-α.
Turning to `Cc1ccc(NC(=O)CC2NC(=O)NC2=O)cc1C(=O)c1ccc(Nc2ccc(F)cc2F)cc1Cl` (stereo not shown) [Compound 248, N-{3-[2-Chloro-4-(2,4-difluoro-phenylamino)-benzoyl]-4-methyl-phenyl}-2-(2,5-dioxo-imidazolidin-4-yl)-acetamide], the IC50 in the assay with IL-1β was found to be 1 nM; in the assay with TNF-α it was 0.7 nM.
Take `Cc1ccc(NC(=O)C2CC(=O)NC(=O)N2)cc1C(=O)c1ccc(Nc2ccc(F)cc2F)cc1Cl` (stereo not shown) [Compound 249, 2,6-Dioxo-hexahydro-pyrimidine-4-carboxylic acid {3-[2-chloro-4-(2,4-difluoro-phenylamino)-benzoyl]-4-methyl-phenyl}-amide]: the IC50 in the assay with IL-1β was 1.6 nM; with TNF-α it was 1.1 nM.
Taken in the same sequence, the figures for `Cc1ccc(NC(=O)CCS(C)(=O)=O)cc1C(=O)c1ccc(Nc2ccc(F)cc2F)cc1Cl` [Compound 252, N-{3-[2-Chloro-4-(2,4-difluoro-phenylamino)-benzoyl]-4-methyl-phenyl}-3-methanesulfonyl-propionamide] were 0.6 nM and 0.6 nM.
With `CCOC(=O)CNC(=O)Nc1ccc(C)c(C(=O)c2ccc(Nc3ccc(F)cc3F)cc2Cl)c1` [Compound 261, (3-{3-[2-Chloro-4-(2,4-difluoro-phenylamino)-benzoyl]-4-methyl-phenyl}-ureido)-acetic acid ethyl ester], the values for the IC50 in the assay on IL-1β and in the assay with TNF-α were 2.2 nM and 1 nM, respectively.
As to `COc1cccc(NC(=O)Nc2ccc(C)c(C(=O)c3ccc(Nc4ccc(F)cc4F)cc3Cl)c2)c1` [Compound 262, 1-{3-[2-Chloro-4-(2,4-difluoro-phenylamino)-benzoyl]-4-methyl-phenyl}-3-(3-methoxy-phenyl)-urea], the IC50 in the assay on IL-1β came to 2 nM; with TNF-α it was 0.6 nM.
Turning to `CCOC(=O)CCNC(=O)Nc1ccc(C)c(C(=O)c2ccc(Nc3ccc(F)cc3F)cc2Cl)c1` [Compound 265, 3-(3-{3-[2-Chloro-4-(2,4-difluoro-phenylamino)-benzoyl]-4-methyl-phenyl}-ureido)-propionic acid ethyl ester], the IC50 in the assay on IL-1β amounted to 1 nM; in the assay on TNF-α, 0.3 nM.
In the case of `C=CCNC(=O)Nc1ccc(C)c(C(=O)c2ccc(Nc3ccc(F)cc3F)cc2Cl)c1` [Compound 267, 1-Allyl-3-{3-[2-chloro-4-(2,4-difluoro-phenylamino)-benzoyl]-4-methyl-phenyl}-urea], the IC50 in the assay on IL-1β came out at 0.4 nM; with TNF-α, 0.2 nM.
Turning to `CCNC(=O)Nc1ccc(C)c(C(=O)c2ccc(Nc3ccc(F)cc3F)cc2Cl)c1` [Compound 269, 1-{3-[2-Chloro-4-(2,4-difluoro-phenylamino)-benzoyl]-4-methyl-phenyl}-3-ethyl-urea], the IC50 in the assay on IL-1β is 0.8 nM; in the assay on TNF-α, 0.6 nM.
`CCCCNC(=O)Nc1ccc(C)c(C(=O)c2ccc(Nc3ccc(F)cc3F)cc2Cl)c1` [Compound 271, 1-Butyl-3-{3-[2-chloro-4-(2,4-difluoro-phenylamino)-benzoyl]-4-methyl-phenyl}-urea]: the IC50 with IL-1β amounted to 1 nM; with TNF-α, 0.4 nM.
For `Cc1ccc(NC(=O)NCCc2ccccc2)cc1C(=O)c1ccc(Nc2ccc(F)cc2F)cc1Cl` [Compound 272, 1-{3-[2-Chloro-4-(2,4-difluoro-phenylamino)-benzoyl]-4-methyl-phenyl}-3-phenethyl-urea], in that order: 3.2 nM and 1.4 nM.
For `Cc1ccc(NC(=O)NC(C)C)cc1C(=O)c1ccc(Nc2ccc(F)cc2F)cc1Cl` [Compound 275, 1-{3-[2-Chloro-4-(2,4-difluoro-phenylamino)-benzoyl]-4-methyl-phenyl}-3-isopropyl-urea], in that order: 5 nM and 0.3 nM.
On to `Cc1ccc(NC(=O)OCc2ccccc2)cc1C(=O)c1ccc(Nc2ccc(F)cc2F)cc1Cl` [Compound 277, {3-[2-Chloro-4-(2,4-difluoro-phenylamino)-benzoyl]-4-methyl-phenyl}-carbamic acid benzyl ester], for which the IC50 with IL-1β turned out to be 2.5 nM; in the assay with TNF-α, 0.8 nM.
Taken in the same sequence, the figures for `CCOC(=O)Nc1ccc(C)c(C(=O)c2ccc(Nc3ccc(F)cc3F)cc2Cl)c1` [Compound 279, {3-[2-Chloro-4-(2,4-difluoro-phenylamino)-benzoyl]-4-methyl-phenyl}-carbamic acid ethyl ester] were 0.6 nM and 0.5 nM.
As for `Cc1ccc(-c2cccc(CO)c2)cc1C(=O)c1ccc(Nc2ccc(F)cc2F)cc1Cl` [Compound 282, [2-Chloro-4-(2,4-difluoro-phenylamino)-phenyl]-(3′-hydroxymethyl-4-methyl-biphenyl-3-yl)-methanone], the results for the IC50 in the assay with IL-1β and in the assay with TNF-α were 5.6 nM and 0.6 nM, respectively.
Taken in the same sequence, the figures for `CC(=O)Nc1cccc(-c2ccc(C)c(C(=O)c3ccc(Nc4ccc(F)cc4F)cc3Cl)c2)c1` [Compound 285, N-{3′-[2-Chloro-4-(2,4-difluoro-phenylamino)-benzoyl]-4′-methyl-biphenyl-3-yl}-acetamide] were 1.4 nM and 0.6 nM.
Taken in the same sequence, the figures for `COc1ccc(CO)cc1C(=O)c1ccc(Nc2ccc(F)cc2F)cc1Cl` [Compound 335, [2-Chloro-4-(2,4-difluoro-phenylamino)-phenyl]-(5-hydroxymethyl-2-methoxy-phenyl)-methanone] were 2.7 nM and 2.5 nM.
On to `COc1ccc(COC(C)=O)cc1C(=O)c1ccc(Nc2ccc(F)cc2F)cc1Cl` [Compound 336, Acetic acid 3-[2-chloro-4-(2,4-difluoro-phenylamino)-benzoyl]-4-methoxy-benzyl ester], for which the results for the IC50 with IL-1β and in the assay with TNF-α were 5 nM and 2 nM, respectively.
On to `Cc1ccc(C(=O)O)cc1C(=O)c1ccc(Nc2ccc(F)cc2F)cc1Cl` [Compound 424, 3-[2-Chloro-4-(2,4-difluorophenylamino)benzoyl]-4-methylbenzoic acid], for which the inhibition at 10 mg/kg in assay [1] is 44%.
As to `Cc1ccccc1C(=O)c1ccc(Nc2ccccc2N)cc1Cl` [Ref. comp. a, 4-(2-aminophenylamino)-2-chloro-2′-methylbenzophenone, reference compound], the inhibition at 10 mg/kg in assay [1] stood at 23%.
Take `Cc1ccccc1C(=O)c1ccc(Nc2cccc(F)c2C)cc1Cl` [Ref. comp. f, 2-Chloro-4-(3-fluoro-2-methyl-phenylamino)-2′-methylbenzophenone, reference compound]: the results for the IC50 with IL-1β and in the assay on TNF-α were 13 nM and 4 nM, respectively.
